{"source": "patent US8163894B2", "about": "“DNA for eukaryotic expression of CymR” (National Research Council of Canada, priority 2001, dated 2012)", "key": {"[1]": {"system": "CymR-mediated expression (P2-cymlacZ fusion system)", "experiment": "Induction of expression in the P2-cymlacZ fusion system by candidate effectors", "assay_type": "cell-based, Pseudomonas putida", "details": "P2-cymlacZ fusion system", "excerpt": "The need to solubilize p-cumate (p-cumic acid) in organic solvent (e.g. ethanol or dimethyl formamide) is a great disadvantage. The present invention thus provides water-soluble effectors as well as possibly expanding the spectrum of inducers beyond p-cumate. At first, cumic alcohol, 4-methyl benzylalcohol, ethyltoluene, indole-2-carboxylic acid, indole-3-carboxylic acid, benzoic acid, 3- and 4-hydroxybenzoic acids, 3,4-dihyroxybenzoic acid and 2,4-dihydrobenzoic acid were tried. […] In this P2-cymlacZ fusion system, the threshold cumate concentration for induction is in the order of 0.002 millimolar (mM).\nThe sodium salt of cumic acid was also tested vs cumic acid (taken as cumate).\nBoth sodium benzoate and sodium toluate are ineffective."}, "[2]": {"target": "CymR-VP16 transactivator in 293 cells (Pseudomonas putida, UniProt O33453)", "sequence (O33453 whole entry, added parts left off)": "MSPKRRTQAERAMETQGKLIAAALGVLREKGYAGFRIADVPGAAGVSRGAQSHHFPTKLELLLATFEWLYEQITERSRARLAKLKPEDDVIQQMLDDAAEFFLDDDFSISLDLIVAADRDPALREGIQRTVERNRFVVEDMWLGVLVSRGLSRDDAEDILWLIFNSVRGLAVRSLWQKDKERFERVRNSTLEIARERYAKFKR", "assay_type": "cell-based", "method": "Transient transfections in 293 and HeLa cells were carried out using the calcium phosphate technique. One (1) ml of DNA-calcium phosphate precipitate contained 5 μg reporter, 250 ng activator/repressor (unless mentioned otherwise) and 3 μg seap in a total of 10 μg DNA. This was divided equally between two 60 mm plates, each containing 10^6 293 cells. One of the two plates received in addition 200 μg/ml cumate. Transient transfections in BMAD78-42 were carried out using Geneporter™ according to manufacturers directions. Briefly, 3 μg DNA (2 μg reporter, 25 ng transactivator and 0.5 μg seap) in 500 μl DMEM was added to 6×10^5 BMAd78-42 cells in DMEM. After 3 h 1 ml DMEM supplemented with 20% serum was added to the plates. Half the samples received DMEM supplemented with 20% serum and 400 μg/ml cumate.\nMeasurement of Seap and β-gal activity Seap activity was measured in 50 μl of cell culture medium by adding 50 μl of 2× seap buffer (1M diethanolamine PH 9.8, 2 mM MgCl2, 10 mM 1-homoarginine and 20 mM p-nitrophenyl phosphate, disodium, hexahydrate Sigma 104 phosphatase substrate) and incubating at room temperature. OD405 was read using a plate reader at different intervals. This information was used to ensure that the enzyme activity was measured under conditions where the substrate was in excess. β-galactosidase activity was measured in transfected cell extracts. Cells were lysed 48 h post-transfection by three freeze-thaw cycles in 0.25M Tris.Hcl pH8. The cell lysate was centrifuged at 14,000×g and enzyme (β-galactosidase) activity was measured in the supernatant (cell extract) using a colorimetric assay containing 1 mM MgCl2, 0.9 mg/ml ONPG, and 66 mM sodium phosphate (pH 7.5). Reactions were incubated at 37° C. until a faint yellow color had developed. OD420 was measured at regular intervals until the reaction appeared to plateau. To measure low level activity (basal activity in the absence of transactivation) a chemiluminescent substrate was used. The reaction was performed using a kit from Roche diagnostics according to the instructions of the manufacturer.\nTo test the system, reporter and activator constructs as described in Example I above, were co-transfected into 293 cells by the calcium-phosphate technique. A plasmid carrying the secreted alkaline phosphatase coding sequence under the control of a constitutive promoter was included in all transfections and seap activity in the cell culture medium was used to normalize for transfection efficiency."}, "[3]": {"target": "T1, CymR repressor in 293 cells (Pseudomonas putida, UniProt O33453)", "T1 construct": "expressed in transfected cells; host or cells: 293 cells", "T1 sequence (O33453 whole entry)": "as the sequence (O33453 whole entry, added parts left off) above", "experiment": "Strategy 2: CymR-mediated repression of CMV5-operator LacZ reporters, transient transfection in 293 cells", "assay_type": "cell-based"}, "293-CymR clones": {"system": "293-CymR clones", "experiment": "Infection of 293-CymR clones with AdCMV5-Og-LacZ, β-galactosidase activity", "assay_type": "cell-based", "details": "200 μg/ml cumate", "method": "1×10^6 293 cells were transfected with 10 μg of pCymR/tk-neo by the calcium phosphate technique. 400 μg/ml G418 was added to the growth medium 48 h after transfection to select a pool of G418-resistant cells. Individual clones (293-CymR) were isolated from this pool by the method of limiting dilution.\n293CymR clones were infected with AdCMV5-Og-LacZ in the presence and absence of 200 μg/ml cumate. β-galactosidase activity was measured 48 h post-infection."}, "293-CymR clone 21": {"system": "293-CymR clone 21", "assay_type": "cell-based", "details": "200 μg/ml cumate, 48 h post-transfection"}, "293-CymR cells": {"system": "293-CymR cells", "assay_type": "cell-based", "details": "293-CymR infected with rAd expressing VSVg"}, "293-CuO-GFPq13# cells": {"system": "293-CuO-GFPq13# cells", "experiment": "GFP expression from stably integrated pAdCMV5-CuO-GFPq in 293-CuO-GFPq13#", "assay_type": "cell-based", "method": "1×10^6 293-CymR clone 21 were transfected with 10 μg of pAdCMV5-CuO-GFPq. GFP expression was induced by the addition of 200 μg/ml cumate and individual GFP positive cells were picked by Quixell™ (Caron, A. W., et al., Methods in cell science 22: 137-145, 2000).\n293-CuO-GFPq13# were cultured in the presence and absence of cumate for 48 h. Photographs were taken using an inverted fluorescence microscope (Leica, Wetzlar, Germany). […] In the OFF state (FIG. 15B) only two GFP-positive cells are visible in the microscopic field.\nTotal GFP fluorescence was measured in the ON (9255) and OFF (3.75) states using an EPICS-XL flow cytometer (Coulter). The ON/OFF ratio for this clone was […]."}, "293 CuO-GFP clone 13": {"system": "293 CuO-GFP clone 13", "experiment": "Testing of cumate analogues as effector molecule (FIG. 16)", "assay_type": "cell-based", "excerpt": "Of course cumate can be substituted for various cumate analogues also referred to as effector molecule as described before.\nThe Deposits were received by the authority on Apr. 10, 2002, and were given accession number IDA-100402-1 and IDA-100402-2, respectively. 293 CuO-GFP clone 13 was also deposited on Apr. 10, 2002 in the same IDA and was given accession number IDA-100401-3."}, "mammalian cells": {"system": "mammalian cells", "experiment": "Effect of cumate on morphology, growth and toxicity in mammalian cells", "assay_type": "cell-based"}, "[4]": {"system": "cumate activator (rAd vectors)", "experiment": "Co-infection with recombinant adenoviral reporter and activator viruses"}}, "note": "Read-outs that look alike come from different tables or passages of the source."}
{"smiles": "CC(C)c1ccc(C(=O)O)cc1", "note": "[cumate, cumic acid]", "values": [{"measurement": "threshold cumate concentration for induction", "setting": "[1]", "value": "~0.002", "unit": "mM"}, {"measurement": "reduction of activation on addition of cumate", "setting": "[2]; pAdCR5LacZ + pAdcTA1(+nls), 200 μg/ml cumate", "value": 78, "unit": "%"}, {"measurement": "reduction of activation on addition of cumate", "setting": "[2]; pAdcTA1(−nls), 50 μg/ml cumate", "value": 86, "unit": "%"}, {"measurement": "reduction of activation on addition of cumate", "setting": "[2]; pAdcTA1(−nls), 100 μg/ml cumate", "value": 87, "unit": "%"}, {"measurement": "reduction of activation on addition of cumate", "setting": "[2]; pAdcTA1(−nls), 200 μg/ml cumate", "value": 89, "unit": "%"}, {"measurement": "activity of the unrepressed state recovered on addition of cumate", "setting": "[3]; nls-containing repressor, pAdCMV5-Og-LacZ", "value": 61, "unit": "%"}, {"measurement": "relief of repression on addition of cumate", "setting": "[3]; nls-containing repressor, pAdCMV5-Os-LacZ", "value": "relieved the repression completely"}, {"measurement": "relief of repression on addition of cumate", "setting": "[3]; pAdCymR, both pAdCMV5-Os-LacZ and pAdCMV5-Og-LacZ", "value": "relieved the repression totally"}, {"measurement": "ON/OFF ratio (β-gal with vs without cumate)", "setting": "293-CymR clones; 293-CymR clone 21, AdCMV5-Og-LacZ", "value": 19}, {"measurement": "ON/OFF ratio (β-gal with vs without cumate)", "setting": "293-CymR clones; 293-CymR clone 22, AdCMV5-Og-LacZ", "value": 16}, {"measurement": "ON/OFF ratio (β-gal with vs without cumate)", "setting": "293-CymR clones; 293-CymR clone 23, AdCMV5-Og-LacZ", "value": 7.6}, {"measurement": "VSVg expression on addition of cumate (western)", "setting": "293-CymR clone 21", "value": "clearly evident"}, {"measurement": "induction of VSVg and syncitia formation on addition of cumate", "setting": "293-CymR cells", "value": "induces the expression of VSVg"}, {"measurement": "cells positive for GFP expression in the presence of cumate", "setting": "293-CuO-GFPq13# cells; 48 h culture", "value": 100, "unit": "%"}, {"measurement": "ON/OFF ratio of total GFP fluorescence", "setting": "293-CuO-GFPq13# cells; clone 293-CuO-GFPq13#", "value": 246}, {"measurement": "Total GFP fluorescence, ON state", "setting": "293-CuO-GFPq13# cells; with cumate, flow cytometer", "value": 9255}, {"measurement": "activity as activator (effector molecule)", "setting": "293 CuO-GFP clone 13", "value": "good activators"}, {"measurement": "effects on morphology or growth rates", "setting": "mammalian cells; 200 μg/ml cumate in media, 4 weeks", "value": "No visible effects"}, {"measurement": "toxicity to mammalian cells", "setting": "mammalian cells; concentrations that effectively regulate gene expression", "value": "does not appear to be toxic"}, {"measurement": "share of the increase obliterated by addition of cumate", "setting": "[4]; reporter moi 10, activator moi 0.1", "value": 95, "unit": "%"}, {"measurement": "share of the increase obliterated by addition of cumate", "setting": "[4]; reporter moi 10, activator moi 1", "value": 98, "unit": "%"}]}
